From patent US6897237B2, “MMP-12 inhibitors” (Shionogi & Co. Ltd., priority 2000, dated 2005)

Tests used:
Type in all cases: biochemical
Conditions in all cases: substrate MOCAc-Pro-Leu-Gly-Leu-A2Pr(DNP)-Ala-Arg-NH2
MMP-1 = biological target: T1, MMP-1 (Homo sapiens, UniProt P03956); assay: Assay for inhibitory activities on MMPs (fluorogenic peptide substrate): MMP-1
T1 construct: purchased Yagai
T1 sequence (P03956 100-469): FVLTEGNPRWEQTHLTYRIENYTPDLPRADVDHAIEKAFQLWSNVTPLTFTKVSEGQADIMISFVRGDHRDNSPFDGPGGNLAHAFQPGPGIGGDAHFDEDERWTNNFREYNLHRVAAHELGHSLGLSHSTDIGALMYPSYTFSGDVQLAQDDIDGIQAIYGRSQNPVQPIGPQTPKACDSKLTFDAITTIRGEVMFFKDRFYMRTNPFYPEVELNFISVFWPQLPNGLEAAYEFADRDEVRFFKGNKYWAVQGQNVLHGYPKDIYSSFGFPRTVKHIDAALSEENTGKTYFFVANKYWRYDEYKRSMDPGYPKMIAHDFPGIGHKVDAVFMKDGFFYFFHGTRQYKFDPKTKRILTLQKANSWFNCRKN
Description: MMP-1 was purchased from Yagai.
(§1) The enzymatic activity on MMPs was analyzed by the method described in “C. Graham Knight, Frances Willenbrock and Gillian Murphy: A novel coumarin-labelled peptide for sensitive continuous assays of the matrix metalloproteinases: FEBS LETT., 296, (1992), 263-266”. The substrate: MOCAc-Pro-Leu-Gly-Leu-A2Pr(DNP)-Ala-Arg-NH2 was purchased from Peptide Institute, Inc., Osaka, Japan. The measurement of the inhibitory activities (IC50) was carried out by the following four methods;
(§2) (A) Reaction with substrate, enzyme (MMPs) and inhibitor
(§3) (B) Reaction with substrate and inhibitor, without enzyme
(§4) (C) Reaction with substrate and enzyme (MMPs), without inhibitor
(§5) (D) Reaction with substrate only
(§6) IC50 values were calculated by using the following formula and each fluorescence values of above four methods (A to D).
(§7) % inhibition={1−(A−B)/(C−D)}×100
(§8) IC50 means the concentration required to inhibit 50% of the enzyme activity.

MMP-8 catalytic domain = biological target: T2, MMP-8 catalytic domain (Homo sapiens, UniProt P22894); assay: Assay for inhibitory activities on MMPs (fluorogenic peptide substrate): MMP-8
T2 construct: catalytic domain (^99Phe˜^262Gly); His-tag; enterokinase digestion-site; made in house; host or cells: Escherichia coli
Description: In regard to MMP-8, catalytic domain (^99Phe˜^262Gly) was amplified with PCR using commercial available Human Bone Marrow cDNA. This was cloned in Escherichia. coli expression vector pTrc99AHE inserted with His-tag sequence and enterokinase digestion-site, induced and expressed by IPTG (Isopropyl-β-D-thiogalactopyranoside) and expressed in a insoluble fraction (Than F. Ho, M. Walid Qoronfleh, Robert C. Wahl, Trica A. Pulvino, Karen J. Vavra, Joe Falvo, Tracey M. Banks, Patricia G. Brake and Richard B. Ciccarelli: Gene expression, purification and characterization of recombinant human neutrophil collagenase. Gene 146, (1994) 297-301, Prepared by the a improved method of this material). Isolation of MMP-8 from insoluble fraction was carried out by dissolving in modifier (6M urea) by a usual method and purification with metal chelate chromatography. And then removing modifier (6M urea) with dialysis and refolding of the enzyme spontaneously gave activated MMP-8.
as §1, §2, §3, §4, §5, §6, §7, §8

MMP-12 catalytic domain = biological target: T3, MMP-12 catalytic domain (Homo sapiens, UniProt P39900); assay: Assay for inhibitory activities on MMPs (fluorogenic peptide substrate): MMP-12
T3 construct: catalytic domain(^100Phe˜^263Gly); His-tag; enterokinase digestion-site; made in house; host or cells: Escherichia coli
Description: In regard to MMP-12, catalytic domain(^100Phe˜^263Gly) was amplified with RT-PCR from Human Placenta Total RNA. This was cloned in Escherichia coli expression vector pTrc99AHE inserted with His-tag sequence and enterokinase digestion-site, induced and expressed by IPTG (Isopropyl-β-D-thiogalactopyranoside) and expressed in a insoluble fraction. Isolation of MMP-12 from a insoluble fraction was carried out by dissolving in modifier (6M urea) by a usual method and purification with metal chelate chromatography (Ni Chelateing Sepharose). And then removing modifier (6M urea) with dialysis and refolding of the enzyme spontaneously gave activated MMP-12.
as §1, §2, §3, §4, §5, §6, §7, §8

T3 sequence (P39900 100-263): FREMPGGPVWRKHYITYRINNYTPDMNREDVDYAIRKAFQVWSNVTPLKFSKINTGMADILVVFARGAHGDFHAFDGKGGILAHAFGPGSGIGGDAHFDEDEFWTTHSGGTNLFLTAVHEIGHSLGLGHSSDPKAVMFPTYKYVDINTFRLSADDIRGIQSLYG
T2 sequence (P22894 99-262): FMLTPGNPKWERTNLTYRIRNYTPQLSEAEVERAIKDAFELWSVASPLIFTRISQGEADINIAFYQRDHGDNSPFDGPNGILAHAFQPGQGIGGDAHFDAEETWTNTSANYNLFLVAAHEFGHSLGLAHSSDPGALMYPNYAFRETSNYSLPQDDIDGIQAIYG

C[C@@H](NS(=O)(=O)c1ccc(C#Cc2ccc3ccccc3c2)s1)C(=O)O [Compound B-6]
IC50 (MMP-1): > 10000 nM | IC50 (MMP-8 catalytic domain): 2090 nM | IC50 (MMP-12 catalytic domain): 23 nM
